Results published in patent EP4537835A1, “MIXTURE, COMPOSITIONS CONTAINING THAT MIXTURE AND USE THEREOF IN THE TREATMENT OF FEMAL INFERTILITY” (Nutra Futura S.r.l., priority 2023, dated 2025).

Tested on: CaCo-2 cells
Test: Dose-response study of cell viability (MTT assay) on CaCo-2 cells
Type: cell-based, human
Settings: p<0.05 compared to the other tested doses
Experimental: The human intestinal epithelial cell line CaCo-2, purchased from the American Type Culture Collection (ATCC), was used as an experimental model to predict the characteristics of intestinal absorption following oral administration. This cell line was cultured in Dulbecco's Modified Eagle Medium/Nutrient F-12 Ham (DMEM-F12, Merck Life Science, Rome, Italy) containing 10% FBS (Merck Life Science, Rome, Italy), 2 mM of L-glutamine and 1% penicillin-streptomycin (Merck Life Science, Rome, Italy) and kept in an incubator at 37 °C and 5% CO2. The experiments were conducted using cells with a passage number comprised between 26 and 32 to maintain the correct properties of permeability and paracellular transport. The cells were seeded in various ways, including 1 × 10^4 cells in 96-well plates, in order to study cell viability and ROS production, synchronising the cells for 8 hours with DMEM without phenol red and supplemented with 0.5% FBS, 2 mM L-glutamine and 1% penicillin-streptomycin at 37 °C; 2 × 10^4 cells in Transwell® 6.5 mm plates (Corning® Costar®, Merck Life Science, Rome, Italy) with a polycarbonate membrane insert with 0.4 µm pores (Corning® Costar®, Merck Life Science, Rome, Italy) in a 24-well plate in order to perform the absorption analyses.
The analysis of cell viability was carried out with a classic technique based on the MTT in vitro toxicology assay kit (Merck Life Science, Rome, Italy), following the manufacturer's instructions. In fact, at the end of the treatment, the cells were incubated with 1% MTT dye for 2 hours in an incubator at 37 °C, 5% CO2 and 95% humidity; the purple formazan crystals were then dissolved in an equal volume of MTT solubilisation solution. Absorbance was analysed with a spectrophotometer (Infinite 200 Pro MPlex, Tecan, Männedorf, Switzerland) at 570 nm with correction at 690 nm, and the results were expressed versus the control ([…]), which represented the untreated cells. The results represent the percentage of viable cells versus the control, which makes it possible to understand whether the stimulation is safe or not.
With the aim of evaluating what the best concentration of each selected substance might be, and to prevent any cytotoxic effect, the viability of the CaCo-2 cells was analysed by means of the MTT assay.
• L. crispatus (10 mg/ml; 20 mg/ml; 30 mg/ml; 40 mg/ml; 50 mg/ml) • NAC (0.3 mM; 0.6 mM; 1 mM) • lycopene (0.1 µM; 0.2 µM; 0.5 µM) • vitamin D3 (10 nM; 100 nM) • folic acid (10 µM; 50 µM; 125 µM; 500 µM)
Therefore, these were maintained for all the subsequent experiments.

## C=C1CC[C@H](O)C/C1=C/C=C1\CCC[C@]2(C)[C@@H]([C@H](C)CCCC(C)C)CC[C@@H]12 [Vitamin D, cholecalciferol]
  most effective concentration (cell viability): 0.01 µM

## Nc1nc(=O)c2nc(CNc3ccc(C(=O)N[C@@H](CCC(=O)O)C(=O)O)cc3)cnc2[nH]1 [Folic acid, (S)-2-(4-((2-amino-4-hydroxypteridin-6-yl)-methylamino)benzamide)pentanedioic acid]
  most effective concentration (cell viability): 50 µM

## CC(C)=CCC/C(C)=C/C=C/C(C)=C/C=C/C(C)=C/C=C/C=C(C)/C=C/C=C(C)/C=C/C=C(\C)CCC=C(C)C [Lycopene, (6E,8E,10E,12E,14E,16E,18E,20E,22E,24E,26E)-2,6,10,14,19,23,27,31-Octamethyl-dotriaconta-2,6,8,10,12,14,16,18,20,22,24,26,30-tridecane]
  most effective concentration (cell viability): 0.2 µM

## CC(=O)N[C@@H](CS)C(=O)O [NAC, N-acetyl-L-cysteine]
  most effective concentration (cell viability): 600 µM
